Key:
[1] = Hygroscopicity: moisture sorption isotherms on a dynamic moisture balance; type: physicochemical
Protocol: The moisture sorption isotherms of Form V was determined at 25° C. using a dynamic moisture balance (MB-300G) (VTI Corp., Hialeah, Fla.) calibrated for weight with 10 to 100 mg standard weights and for moisture with polyvinylpyrrolidone. The value for the weight equilibrium criterion for each relative humidity is calculated based on the weight of the sample and the drift in the balance (0.001 mg). A value of 8 min. was used for the time criteria. The moisture sorption profile of the dihydrate (Form V) (Adsorption 1/Desorption 1) after drying in vacuo for 2 h is shown in FIG. 5. Form V dehydrates on drying to a different crystal form as shown by vacuum X-ray powder diffraction in FIG. 6, losing approximately 8% by weight. For purposes of this specification, this dehydrated dihydrate is identified as […]. This form appears to be the same as that obtained by heating the sample at 125° C., but different from that obtained on drying at 60° C. in air for 24 h. The latter form is identified as Form III. The Form II (dehydrated dihydrate) is hygroscopic converting to a hemihydrate between ca. 10-40% RH and a tetrahydrate at 90% RH (FIG. 5 and FIG. 7). However, the XRPD pattern for the hemihydrate is the same as that of the dehydrated dihydrate (Form II). For purposes of this specification this hemihydrate and tetrahydrate are identified as Form II and Form IV, respectively.
Form I is non-hygroscopic with a maximum weight change of ca. 1% at 90% RH. On desorption, the tetrahydrate (Form IV) remains unchanged between 90-60% RH but converts to dihydrate (Form V) at 45-15% RH (FIG. 5 and FIG. 8).
Since the X-ray diffraction patterns of the dehydrated dihydrate and the hemihydrate are the same, we conclude that the hemihydrate is isostructural with the dehydrated dihydrate form obtained on drying in vacuo. […]

[2] = Thermal stability: heating the sample for 24 h at 60° C. in air; type: physicochemical
Protocol: The thermal stability of the Form V was evaluated by heating the sample for 24 h at 60° C. in air. The dihydrate (Form V) readily dehydrates within 10 min of heating losing approximately 8.5% by weight (corresponding to ca. 2 moles of water per mole base).

## O=C(NC1CC1)c1cn(-c2cccc(C#Cc3ccc[n+]([O-])c3)c2)c2ncccc2c1=O [Form I, N-Cyclopropyl-1-{3-[(1-oxidopryidin-3-yl)ethynyl]phenyl}-4-oxo-1,4-dihydro-1,8-naphthyridine-3-carboxyamide]
[1]; 25° C., dynamic moisture balance
  Hygroscopicity (in words): non-hygroscopic
[1]; at 90% RH, 25° C.
  maximum weight change: ca. 1%

## Compound IX Dihydrate [Dihydrate (Form V)]
[1]; drying in vacuo for 2 h
  weight lost on drying (dehydration to a different crystal form): approximately 8 % by weight
[2]
  time of heating until dehydration: ≤ 10 min
  weight lost on heating (dehydration): approximately 8.5 % by weight
